In patent US12390440B2, “Immunomodulating trifluoromethyl-aminal azalides” (Zoetis Services LLC, priority 2020, dated 2025):
Converted amounts (≈) assume the structure as drawn. Like-named read-outs stand apart in the source and are kept apart here.

Assays:
IL-1β = test: Bovine whole blood assay, IL-1β; assay type: cell-based; conditions: overstimulation of IL-1β, perceived cellular toxicity concentration;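 note: compound concentration at which rising IL-1β release signals cytotoxicity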
Description: (§1) (protected from light) for 30 minutes.

[1] = tested on: BRD pathogens, M. haemolytica and P. multocida; test: MIC screening panel, BRD pathogens (CLSI broth micro-dilution); conditions: read-out: MIC flag (*) at Ex #
P. multocida = test: MIC, P. multocida; conditions: Pasteurella multocida
E. coli = test: MIC, E. coli; conditions: Escherichia coli
S. aureus = test: MIC, S. aureus; conditions: Staphylococcus aureus
P. multocida 46572 = test: In vivo mouse lung infection challenge model (murine efficacy); conditions: for % Survival: 20 mg/kg subcutaneous, harmonized survival relative to vehicle and M9 controls, study ended Day 10
Description: The challenge organism was P. multocida 46572. Target challenge concentration was 5×10^2 CFU/mouse. Isolated colonies from overnight growth (37° C. with 5% CO2) on trypticase soy agar (TSA II) blood plates were transferred to room temperature Brain Heart Infusion Broth (BHIB). The broth culture was incubated 3.5-4 hours to approximately mid-log phase of growth, as measured by forward light scatter at 600 nm (OD600, 0.200). The culture was centrifuged to collect the bacterial pellet. The pellet was re-suspended in BHIB and adjusted to provide an approximate concentration of 2.7 log^10 colony forming units (CFU) in 0.04 mL at the highest concentration. The challenge inoculum concentration was confirmed by serial dilutions of the inoculum for CFU enumeration. On Day −5, CD-1 female mice were received. Mice were given standard rodent diet and water ad libitum. On Day 0, bacterial inoculum (0.04 mL) was administered to each mouse (n=36) intranasally. Compounds of the invention were dosed at 20 mg/kg (0.1 mL) in a buffered (˜pH 5.4) propylene glycol, monothioglycerol and water solution by subcutaneous injection. Animals were observed from Days 1-10. The study was terminated on Day 10. In addition, some treatment groups were sampled at 6, 24, and 48 hours post bacterial challenge for RNA sequence analysis of lung tissue.
The murine efficacy model (P. multocida challenge) was optimized, and the treatment group size was powered to be able to observe statistically significant improvement of survival to expected ranges for immunomodulatory compounds. The experimental design was a randomized complete block design. Mice were individually identified and treatment groups comingled within a cage, with every treatment group equally represented across cages. Mortality was the primary variable. Mortality data was analyzed using a generalized mixed model with fixed effect of treatment and random effect of block. Survival time was also analyzed using the SAS PHREG (survival analysis) procedure to examine whether there were significant differences between treatment groups and the control group. Numerous compounds of the invention and M9 (positive control) were tested in this model at a dose of 20 mg/kg (Table 3). Typical percent survival for no treatment control is in the range of 0-20% based on study to study variation in challenge inoculum and rate of infection. […] Mouse survival for M9 was about 90-100%, further supporting its residual antibacterial properties against the bacterial strain. Harmonized survival accounts for % survival relative to vehicle (“−” control) and M9 (“+” control)) survival data (Table 3).

TNF-α = test: Bovine whole blood assay, LPS-induced TNF-α; assay type: cell-based; conditions: Bos taurus, fresh whole bovine blood, LPS 1 μg/mL
Description: as §1

M. haemolytica = test: MIC, M. haemolytica; conditions: Mannheimia haemolytica
IL-6 = test: Bovine whole blood assay, IL-6; assay type: cell-based; conditions: Bos taurus, fresh whole bovine blood, LPS 1 μg/mL
Description: as §1

[2] = P. multocida 46572, murine efficacy challenge strain
[3] = M. haemolytica 46571, bovine efficacy challenge strain

Row | Structure (SMILES) | IL-1β OS of LPS (IL-1β) | MIC [1] | MIC (P. multocida; P. multocida 43137) | MIC (P. multocida; [2]) | MIC (P. multocida; read-out: MIC flag (*) at Ex. #, P. multocida challenge strain (46572K), Table 3) | MIC (E. coli; E. coli 25922) | MIC (E. coli; E. coli W3110) | MIC (S. aureus) | % Survival (P. multocida 46572) | IC50 (TNF-α) | MIC (M. haemolytica; M. haemolytica 12726) | MIC (M. haemolytica; M. haemolytica 33396) | MIC (M. haemolytica; [3]) | IC50 (IL-6) | clinical efficacy in P. multocida infection in mice (P. multocida 46572; mouse, in vivo)
1 | CCCNC[C@]1(O)[C@H](C)O[C@@H](O[C@H]2[C@H](C)[C@@H](O[C@@H]3O[C@H](C)C[C@H]4[C@H]3OC(C(F)(F)F)N4C)[C@](C)(O)C[C@@H](C)CN[C@H](C)[C@@H](O)[C@](C)(O)[C@@H](CC)OC(=O)[C@@H]2C)C[C@@]1(C)OC (stereo partly drawn) [Example A-1, (2R,3S,4R,5R,8R,10R,11R,12S,13S,14R)-11-(((3aR,4S,6R,7aS)-1,6-dimethyl-2-(trifluoromethyl)hexahydro-2H-pyrano[4,3-d]oxazol-4-yl)oxy)-2-ethyl-13-(((2R,4R,5S,6S)-5-((propylamino)methyl)-5-hydroxy-4-methoxy-4,6-dimethyltetrahydro-2H-pyran-2-yl)oxy)-3,4,10-trihydroxy-3,5,8,10,12,14-hexamethyl-1-oxa-6-azacyclopentadecan-15-one] | >500 µM | < 64 µg/mL | > 64 µg/mL | 64 µg/mL (≈ 73.4 µM) | < 64 µg/mL | > 64 µg/mL | > 64 µg/mL | > 64 µg/mL | 43% | < 3 µM | > 64 µg/mL | > 64 µg/mL | > 64 µg/mL | – | –
2 | CC[C@H]1OC(=O)[C@H](C)[C@@H](O[C@H]2C[C@@](C)(OC)[C@](O)(CNCCOC)[C@H](C)O2)[C@H](C)[C@@H](O[C@@H]2O[C@H](C)C[C@H]3[C@H]2OC(C(F)(F)F)N3C)[C@](C)(O)C[C@@H](C)CN[C@H](C)[C@@H](O)[C@]1(C)O (stereo partly drawn) [Example A-2, (2R,3S,4R,5R,8R,10R,11R,12S,13S,14R)-11-(((3aR,4S,6R,7aS)-1,6-dimethyl-2-(trifluoromethyl)hexahydro-2H-pyrano[4,3-d]oxazol-4-yl)oxy)-2-ethyl-3,4,10-trihydroxy-13-(((2R,4R,5S,6S)-5-hydroxy-4-methoxy-5-(((2-methoxyethyl)amino)methyl)-4,6-dimethyltetrahydro-2H-pyran-2-yl)oxy)-3,5,8,10,12,14-hexamethyl-1-oxa-6-azacyclopentadecan-15-one] | – | – | – | – | – | – | – | – | 18% | – | – | – | – | – | –
3 | CC[C@H]1OC(=O)[C@H](C)[C@@H](O[C@H]2C[C@@](C)(OC)[C@](O)(CNC3CCC3)[C@H](C)O2)[C@H](C)[C@@H](O[C@@H]2O[C@H](C)C[C@H]3[C@H]2OC(C(F)(F)F)N3C)[C@](C)(O)C[C@@H](C)CN[C@H](C)[C@@H](O)[C@]1(C)O (stereo partly drawn) [Example A-7, (2R,3S,4R,5R,8R,10R,11R,12S,13S,14R)-13-(((2R,4R,5S,6S)-5-((cyclobutylamino)methyl)-5-hydroxy-4-methoxy-4,6-dimethyltetrahydro-2H-pyran-2-yl)oxy)-11-(((3aR,4S,6R,7aS)-1,6-dimethyl-2-(trifluoromethyl)hexahydro-2H-pyrano[4,3-d]oxazol-4-yl)oxy)-2-ethyl-3,4,10-trihydroxy-3,5,8,10,12,14-hexamethyl-1-oxa-6-azacyclopentadecan-15-one] | – | – | > 64 µg/mL | > 64 µg/mL | – | > 64 µg/mL | > 64 µg/mL | > 64 µg/mL | – | – | > 64 µg/mL | > 64 µg/mL | > 64 µg/mL | – | –
4 | CC[C@H]1OC(=O)[C@H](C)[C@@H](O[C@H]2C[C@@](C)(OC)[C@](O)(CNCCN3CCCC3=O)[C@H](C)O2)[C@H](C)[C@@H](O[C@@H]2O[C@H](C)C[C@H]3[C@H]2OC(C(F)(F)F)N3C)[C@](C)(O)C[C@@H](C)CN[C@H](C)[C@@H](O)[C@]1(C)O (stereo partly drawn) [Example A-12, (2R,3S,4R,5R,8R,10R,11R,12S,13S,14R)-11-(((3aR,4S,6R,7aS)-1,6-dimethyl-2-(trifluoromethyl)hexahydro-2H-pyrano[4,3-d]oxazol-4-yl)oxy)-2-ethyl-3,4,10-trihydroxy-13-(((2R,4R,5S,6S)-5-hydroxy-4-methoxy-4,6-dimethyl-5-(((2-(2-oxopyrrolidin-1-yl)ethyl)amino)methyl)tetrahydro-2H-pyran-2-yl)oxy)-3,5,8,10,12,14-hexamethyl-1-oxa-6-azacyclopentadecan-15-one] | 40 µM | – | > 64 µg/mL | > 64 µg/mL | – | > 64 µg/mL | > 64 µg/mL | > 64 µg/mL | – | 45 µM | > 64 µg/mL | > 64 µg/mL | > 64 µg/mL | 24 µM | –
5 | CCCNC[C@]1(O)[C@H](C)O[C@@H](O[C@H]2[C@H](C)[C@@H](O[C@@H]3O[C@H](C)C[C@H]4[C@H]3OC(C(F)(F)F)N4Cc3ccccc3)[C@](C)(O)C[C@@H](C)CN[C@H](C)[C@@H](O)[C@](C)(O)[C@@H](CC)OC(=O)[C@@H]2C)C[C@@]1(C)OC (stereo partly drawn) [Example A-28, (2R,3S,4R,5R,8R,10R,11R,12S,13S,14R)-11-(((3aR,4S,6R,7aS)-1-benzyl-6-methyl-2-(trifluoromethyl)hexahydro-2H-pyrano[4,3-d]oxazol-4-yl)oxy)-2-ethyl-3,4,10-trihydroxy-13-(((2R,4R,5S,6S)-5-hydroxy-4-methoxy-4,6-dimethyl-5-((propylamino)methyl)tetrahydro-2H-pyran-2-yl)oxy)-3,5,8,10,12,14-hexamethyl-1-oxa-6-azacyclopentadecan-15-one] | >250 µM | < 64 µg/mL | – | – | – | – | – | – | – | 8 µM | – | – | – | 12 µM | –
6 | CC[C@H]1OC(=O)[C@H](C)[C@@H](O[C@H]2C[C@@](C)(OC)[C@](O)(CN3CCOCC3)[C@H](C)O2)[C@H](C)[C@@H](O[C@@H]2O[C@H](C)C[C@H]3[C@H]2OC(C(F)(F)F)N3C)[C@](C)(O)C[C@@H](C)CN[C@H](C)[C@@H](O)[C@]1(C)O (stereo partly drawn) [Example B-1, (2R,3S,4R,5R,8R,10R,11R,12S,13S,14R)-11-(((3aR,4S,6R,7aS)-1,6-dimethyl-2-(trifluoromethyl)hexahydro-2H-pyrano[4,3-d]oxazol-4-yl)oxy)-2-ethyl-3,4,10-trihydroxy-13-(((2R,4R,5S,6S)-5-hydroxy-4-methoxy-4,6-dimethyl-5-(morpholinomethyl)tetrahydro-2H-pyran-2-yl)oxy)-3,5,8,10,12,14-hexamethyl-1-oxa-6-azacyclopentadecan-15-one] | 13 µM | – | > 64 µg/mL | > 64 µg/mL | – | > 64 µg/mL | > 64 µg/mL | > 64 µg/mL | – | 10 µM | > 64 µg/mL | > 64 µg/mL | > 64 µg/mL | – | –
7 | CC[C@H]1OC(=O)[C@H](C)[C@@H](O[C@H]2C[C@@](C)(OC)[C@](O)(CN3CCN(C)CC3)[C@H](C)O2)[C@H](C)[C@@H](O[C@@H]2O[C@H](C)C[C@H]3[C@H]2OC(C(F)(F)F)N3C)[C@](C)(O)C[C@@H](C)CN[C@H](C)[C@@H](O)[C@]1(C)O (stereo partly drawn) [Example B-2, (2R,3S,4R,5R,8R,10R,11R,12S,13S,14R)-11-(((3aR,4S,6R,7aS)-1,6-dimethyl-2-(trifluoromethyl)hexahydro-2H-pyrano[4,3-d]oxazol-4-yl)oxy)-2-ethyl-3,4,10-trihydroxy-13-(((2R,4R,5S,6S)-5-hydroxy-4-methoxy-4,6-dimethyl-5-((4-methylpiperazin-1-yl)methyl)tetrahydro-2H-pyran-2-yl)oxy)-3,5,8,10,12,14-hexamethyl-1-oxa-6-azacyclopentadecan-15-one] | 5 µM | – | – | – | – | – | – | – | 47% | 5 µM | – | – | – | – | clinically efficacious
